Measured values as given in patent US20040063681A1, “Methods for using gold (III) complexes as anti-tumor and anti-HIV agents” (priority 2002, published 2004).

Legend:
[1] = 1H-NMR stability experiments with GSH; type: physicochemical; conditions: 72 h
Description: ^1H-NMR experiments. […] The pH was adjusted to 7.4 with NaOD, and the solution was degassed for 10 min by bubbling with nitrogen to minimize oxidation of GSH. Similar experimental setup was done for Complex 1j, except this analysis was carried out in D2O only. The electronic spectra of the resulting mixtures was then monitored for 72 h.
It is known that the chemical shifts of the pyrrolic protons are sensitive to the oxidation states of the gold center, and reduction of Au(III) to Au(I) or Au(0) is expected to be accompanied by spectral changes in the pyrrolic region.
Glutathione can be oxidized to form a disulfide bridged dimer (GSSG) with a mild oxidizing agent such as gold(III) complex. A previous study by Sun et al., Eur. J. Biochem. 267:5450-5457 (2000) established that GSSG is characterized by a doublet absorption peak at δH 3.30 ppm, assignable to β-CH2 group as depicted in Scheme 5. Scheme 5. Characteristic proton resonance absorptions for (a) GSH and (b) GSSG in D2O [drawing 29]
The results of the NMR studies indicate that illustrative Complexes 1a-1k are stable under physiologically relevant conditions.

[2] = Electrochemical measurements (cyclic voltammetry); type: physicochemical
Description: Electrochemical measurements. Electrochemical measurements were performed at room temperature after purging with nitrogen using 0.1 M tetrabutylammonium hexafluorophosphate (TBAP)/acetonitrile as supporting electrolyte. The working electrode was a glassy carbon (Atomergic Chemetal V25, geometric area of 0.35 cm^2) electrode and the counter electrode was platinum gauze. A nonaqueous Ag/AgNO3 (0.1 M in acetonitrile) reference electrode was contained in a separate compartment connected to the test solution via fine sintered glass disks. The ferrocenium/ferrocene couple was used as the internal standard. The redox properties of the gold(III) porphyrin complexes in non-aqueous medium (CH2Cl2 with 0.1 M nBu4NPF6) have been studied by cyclic voltammetry with glassy carbon and platinum as the working and counter electrodes, respectively. […] The effect of para-substitution on the electrochemical potentials has been examined by Hammett correlation analysis.

[3] = test system: Human Hepatocellular Carcinoma (HepG2); assay: MTT cytotoxicity, HepG2; type: cell-based; conditions: growth inhibition
Text: (§1) Human promyelocytic leukemia (HL-60), human hepatocellular carcinoma (HepG2), Human cervix epitheloid carcinoma cells (HeLa) and human oral epidermoid carcinoma cells (KB-3-1), were obtained from American Type Culture Collection (ATCC) (Rockville, Md.). The multi-drug-resistant variant KB-V1 cell line was obtained by stepwise selections for vinblastine resistance as described by Shen et al., J. Biol. Chem. 261:7762-7770 (1986)], and was generously provided by Dr Michael Gottesman (NIH, Bethesda, Md.). Human nasopharyngeal carcinoma cells (SUNE1 and its cisplatin resistance variant, CNE1) were derived from poorly differentiated NPC in Chinese patients as described by Gu et al., Chin. J. Cancer 2:270-272 (1983), and were generously provided by Dr S. W. Tsao (The University of Hong Kong, Hong Kong, PRC). Cell culture flasks and 96 well microtitre plates were from Nalge Nunc hit. Culture medium, other medium constituents and phosphate buffered saline (PBS) were obtained from Gibco BRL (Rockville, Md.). Cell Proliferation Kit I (MTT) was purchased from Roche (Mannheim, Germany).
The anti-cancer activities of the gold(III) porphyrin complexes were evaluated toward some established human cancer cell lines: promyelocytic leukemia (HL-60), hepatocellular carcinoma (HepG2), cervix epitheloid carcinoma (HeLa), epidermoid carcinoma (KB-3-1) and its multi-drug resistant variant (KB-V1), nasopharyngeal carcinoma (SUNE1) and its cisplatin-resistant variant (CNE1). The experiments were carried out by following the MTT procedure (see Mosmann et al., J. Immunol. Methods 65:55-63 (1983). The IC50 values of the gold(III) porphyrin complexes together with that of cisplatin, and KAuCl4 are provided in Table 4a; and the IC50 values of the gold(III) Schiff-base and bis(pyridyl)carboxamide complexes are shown in Table 4b. The cytotoxicity profiles of some selected gold(III) porphyrin complexes toward SUNE1 and its cisplatin-resistant variant CNE1 are also shown in FIG. 7.

[4] = test system: human cancer cell lines (HL-60, HepG2, HeLa, KB-3-1, KB-V1, SUNE1, CNE1); type: cell-based; conditions: MTT, all studied cell lines; read-out: IC50 values over the panel of cancer cell lines
Text: as §1, with “Cell Proliferation Kit I (MTT) was purchased from Roche (Mannheim, Germany).” left out
The anti-cancer activities of the gold(III) porphyrin complexes were evaluated toward some established human cancer cell lines: promyelocytic leukemia (HL-60), hepatocellular carcinoma (HepG2), cervix epitheloid carcinoma (HeLa), epidermoid carcinoma (KB-3-1) and its multi-drug resistant variant (KB-V1), nasopharyngeal carcinoma (SUNE1) and its cisplatin-resistant variant (CNE1). […]

[5] = test system: human lung fibroblast cells (CCD-19Lu); conditions: MTT
Description: Acute cytotoxicities of the gold(III) complexes to normal cells were evaluated using human lung fibroblast cells (CCD-19Lu) as model cell line. The percentages of cell survival at various doses of the gold complexes were determined by the MTT assay, and the toxicities profiles are shown in FIG. 15.

calf thymus DNA = assay: UV-vis absorption titration with calf thymus DNA; type: binding
Description: The calf thymus DNA was purchased from Sigma-Aldrich Chemical Co. and was purified by phenol-chloroform extraction. The DNA was dissolved in buffer (5 mM Tris, 5 mM NaCl, pH 7.2). The concentration (per base pair) of calf thymus DNA was determined spectrophotometrically on the basic of ε260, 13,200 M^−1cm^−1bp.
Absorption Titration. The binding interaction of the gold(III) porphyrins to duplex DNA has been studied by UV-vis spectroscopy.
where [ctDNA] is the concentration of DNA, Δεap═|εA−εB| in which εA=Aobs/[complex], and Δε=|εB−εF|. εB and εF correspond to the extinction coefficient of DNA-bound gold(III) porphyrin and the free gold(III) porphyrins, respectively.
The effect of temperature on the intrinsic binding constants was investigated. Using the van't Hoff equation (2): […]

[6] = Control UV-vis titration with sodium dodecyl sulfate instead of DNA; type: binding; conditions: sodium dodecyl sulfate (0-5 μM) instead of DNA
Text: See Neidle, S. DNA structure and recognition; Oxford University Press: Oxford, 1994; 74-79.

[7] = cyclic voltammetry, 0.1 M nBu4NPF6, glassy carbon, vs Cp2Fe^+/0

**Q.** With `C1=Cc2nc1c(-c1ccccc1)c1ccc([n-]1)c(-c1ccccc1)c1nc(c(-c3ccccc3)c3ccc([n-]3)c2-c2ccccc2)C=C1.[Au+3].[Cl-]` [Complex 1a] as the compound, how does the “1H NMR spectral changes” value ([1]; GSH (2 mM), D2O/CD3CN (9:1 v/v), room temperature) read?
**A.** no significant spectral changes were observed

**Q.** What about the “changes of 1H NMR spectral pattern in the aromatic region (δH 7.2-8.4 ppm)” value ([1]; with GSH) of the same compound?
**A.** did not observe any significant changes of the spectral pattern

**Q.** And the “Couple I (first reduction couple)” value [2, 7]?
**A.** −1.00 V

**Q.** What about the “Couple II (second reduction couple)” value [2, 7] of the same compound?
**A.** −1.48 V

**Q.** What about the “ΔE1o (E^0Y − E^0H), couple I” value ([2]; relative to Y=H (Complex 1a)) of the same compound?
**A.** 0 V

**Q.** What about the “ΔE2^0 (E^0Y − E^0H), couple II” value ([2]; relative to Y=H (Complex 1a)) of the same compound?
**A.** 0 V

**Q.** And the IC50 [3]?
**A.** 340 nM

**Q.** And the IC50 [4]?
**A.** 100 to 800 nM

**Q.** And the cell death ([5]; CCD-19Lu, 2 μM)?
**A.** 90%

**Q.** What about the IC50 ([5]; read-out: IC50 CCD-19Lu, mean ± SE of at least three determinations) of the same compound?
**A.** 910 ± 210 nM

**Q.** What about the hypochromicity (calf thymus DNA; Tris buffer, 292.8 K) of the same compound?
**A.** 53.4%

**Q.** And the hypochromicity (calf thymus DNA; Tris buffer, 298.0 K)?
**A.** 50.3%

**Q.** What about the “intrinsic binding constant (Kb)” value (calf thymus DNA; Tris buffer, 298.0 K) of the same compound?
**A.** 2.14 × 10^6 dm^3mol^−1

**Q.** What about the hypochromicity (calf thymus DNA; Tris buffer, 302.3 K) of the same compound?
**A.** 49.5%

**Q.** And the “intrinsic binding constant (Kb)” value (calf thymus DNA; Tris buffer, 302.3 K)?
**A.** 1.98 × 10^6 dm^3mol^−1

**Q.** What about the hypochromicity (calf thymus DNA; Tris buffer, 307.2 K) of the same compound?
**A.** 47.1%

**Q.** What about the “intrinsic binding constant (Kb)” value (calf thymus DNA; Tris buffer, 307.2 K) of the same compound?
**A.** 1.55 × 10^6 dm^3mol^−1

**Q.** What about the hypochromicity (calf thymus DNA; Tris buffer, 311.6 K) of the same compound?
**A.** 46.3%

**Q.** And the “intrinsic binding constant (Kb)” value (calf thymus DNA; Tris buffer, 311.6 K)?
**A.** 1.35 × 10^6 dm^3mol^−1

**Q.** And the hypochromicity (calf thymus DNA; Tris buffer, 316.5 K)?
**A.** 43.4%

**Q.** And the “intrinsic binding constant (Kb)” value (calf thymus DNA; Tris buffer, 316.5 K)?
**A.** 0.94 × 10^6 dm^3mol^−1

**Q.** And the hypochromicity (calf thymus DNA; Tris buffer, 321.9 K)?
**A.** 42.5%

**Q.** What about the “intrinsic binding constant (Kb)” value (calf thymus DNA; Tris buffer, 321.9 K) of the same compound?
**A.** 0.82 × 10^6 dm^3mol^−1

**Q.** What about the “ΔG° (298 K)” value (calf thymus DNA; binding to calf thymus DNA, van't Hoff analysis, 298 K) of the same compound?
**A.** −8.7 ± 0.4

**Q.** What about the “hypochromicity of the Soret band” value (calf thymus DNA; calf thymus DNA (0-5 μM), Tris buffer) of the same compound?
**A.** 44%

**Q.** And the “hypochromicity of the Q-band at 520 nm” value (calf thymus DNA; calf thymus DNA (0-5 μM), Tris buffer, 2% DMSO)?
**A.** 40%

**Q.** And the “hypochromicity of the Soret band” value [6]?
**A.** 48%
